System: HepG2 (hepatocellular carcinoma cells)
Assay: Oxygen consumption rate (OCR) in HepG2 cells, Seahorse XFe96 Extracellular Flux Analyzer
Type: cell-based
Procedure: HepG2 (hepatocellular carcinoma cells) were utilized in a Seahorse XFe96 Extracellular Flux Analyzer to analyze Compound (A)'s and the phenolic metabolite of the compound of formula (I)'s (“DNP”) effect on oxygen consumption rate (OCR).
30,000 HepG2 cells in MEM Alpha growth medium+10% Fetal Bovine Serum were seeded in XFe 96-well cell culture plate and incubated overnight at 37 °C with 5% CO2. The following day, cells were transferred to assay media (DMEM basal assay medium containing 10 mM Glucose 2 mM Glutamine, 1 mM Sodium Pyruvate, adjusted to pH7.4 with IN NaOH) and OCR was measured in a Seahorse XFe96 Extracellular Flux Analyzer according to the manufacturer's instructions. The effect of novel compounds on OCR was assayed in quadruplicates, at three different concentrations and in three separate experiments. The concentration that reaches half their maximum effect (EC50) and maximum OCR (Emax) increase as compared to DNP (100%) over untreated cells (0%) was calculated as an average between the three independent experiments. For data analysis GraphPad Prism was utilized.

## O=[N+]([O-])c1ccc(O)c([N+](=O)[O-])c1 [DNP]
OCR values normalized to 100 μM DNP (Emax=100%), average of three independent experiments
  Emax (maximum OCR increase as compared to DNP (100%) over untreated cells (0%)): 100%
Result in words
  effect on oxygen consumption rate (OCR): increased oxygen consumption rate (OCR)
Three concentrations in quadruplicates, average of three independent experiments, read-out: EC50 (concentration that reaches half their maximum effect on OCR)
  EC50: 22 µM

From patent US20260365625A1, “DEUTERIUM ENRICHED PHENYL DERIVATIVES FOR TREATING MITOCHONDRIARELATED DISORDERS OR CONDITIONS” (Rivus Pharmaceuticals, Inc., priority 2022, published 2026)
